Results reported in patent US20240122954A1 (YEP BIO CO. LTD., priority 2021, published 2024).

Legend:
[1] = system: neural stem cells; test: Neurite activity from neural stem cells of B6;SJL-Tg(APPSWE)2576Kha transgenic mice; assay type: cell-based; details: 0.01 pg/mL and 1 pg/mL, compared to the control group
Procedure: (§1) B6;SJL-Tg(APPSWE)2576Kha, a genetically modified mouse for […], was used as an in-vitro brain disease model. Neural stem cells were isolated from subventricular zone (SVZ) tissues of transgenic newborn mice and neurospheres were cultured. In addition, neurosphere cells were induced to attach to the bottom with 5% FBS+F12/DMEM medium for 48 hours, and to observe differentiation potential, eleutheroside B in 5% BS+F12/DMEM medium was added to the cells, and neurite activity was observed under a microscope. In addition, the neuronal cell differentiation potential using the Neuro-2a cell line, which is a neuroblast, was confirmed. To confirm differentiation, neural differentiation markers such as DCX, Tuj1, neuroD, and NeuN were confirmed by qPCR.
In order to confirm the activity of neurite from neural stem cells according to eleutheroside B treatment, B6;SJL-Tg(APPSWE)2576Kha, a genetically modified mouse for degenerative brain disease, was used as an in-vitro brain disease model. Neural stem cells were isolated from the subventricular zone (SVZ) tissue of genetically modified newborn mice, and the number of cells to be used in the experiment was secured through neurosphere culture. […]

[2] = system: Neuro-2a; test: Neuronal differentiation marker analysis by qPCR in neuroblast cell line; assay type: cell-based; details: compared to the control
Procedure: as §1
In order to examine this at a molecular level, RNA analysis of neuronal differentiation markers (Sox2, Nestin, NeuroD, DCX, Tuj-1, NeuN) was performed, and the results are shown in FIG. 11.
When confirming the neuronal differentiation marker, a neuroblast cell line, Neuro-2a was used, and the differentiation was confirmed by qPCR to observe if the amoeba-type metaphase cells were differentiated into neurons by the drug.

[3] = system: astrocytes (GFAP); test: Brain immunohistochemistry of astrocyte activity (GFAP) in hippocampus of 5×FAD; assay type: in vivo, mouse; details: 50 or 150 mg/kg intraperitoneally twice a week
Procedure: (§2) In 5×FAD, an animal model of Alzheimer's disease, amyloid protein is deposited from 2.5 months and cognitive function is impaired from 6 months. Accordingly, eleutheroside B (vehicle, 50 or 150 mg/kg) was intraperitoneally administered twice a week from 4 months, and working memory ability was measured at 6 months when cognitive function was impaired. The experimental groups were 3 animals each of WT+vehicle, TG+vehicle, TG+50 mg/kg (TG_E.B(L)), and TG+150 mg/kg (TG_E.B(H)) of the same age as TG. Working memory ability was measured with Y-maze, and pre-adaptation training for the maze was performed the day before the maze experiment.
(§3) In order to confine the pathological changes related to cognitive improvement, blood was removed by perfusion through the heart. The blood-free brain was fixed in 4% paraformaldehyde for one day, then made into a paraffin block and fabricated into 4 μm tissue sections for histological staining. The activities of astrocytes (GFAP) and microglia (Iba 1) were measured by confocal microscopy in the dentate gyrus, CA1, and CA3 regions of the hippocampus and the entorhinal cortex, which are major damaged areas in Alzheimer's disease.

[4] = system: BV2 cells; details: according to the report; cited from earlier work
[5] = system: microglia; test: Cytokine secretion of LPS-treated microglia (multiplexing of conditioned media); assay type: cell-based; details: conditioned media after 24 hours
[6] = system: astrocytes; test: Inhibition of LPS-induced astrocyte activity (cell number, cell area, GFAP intensity; high content imaging); assay type: cell-based, rats; details: LPS-activated astrocytes
Procedure: The brains of 1-2 day old rats were excised, separated from the cerebral cortex, and cultured. That is, the […] cortex was divided into single cells in high-glucose DMEM medium containing 10% FBS and penicillin-streptomycin solution (5000 units/ml penicillin, 5 mg/ml streptomycin, Corning, USA), and cultured in a 75-cm2T flask. (0.5 hemispheres/flask) in a cell incubator at 5% CO2 and 37° C.
After 1 week of culture, microglia were removed by shaking at 250 rpm for 4 hours, and the cultured astrocytes were harvested using 0.1% trypsin to obtain an astrocyte population. Astrocytes were cultured in 6-well plates previously coated with Poly-D-Lysine (Sigma).
Astrocytes were used after primary culture was isolated from the brain of pup within 1 to 3 days after birth, and the separated astrocytes were treated with LPS at expressing the lowest concentration of IL-6. The drug treatment was performed simultaneously with LPS, and the activity of astrocytes was evaluated through the number of proliferated cells and changes in morphology (FIG. 2).

[7] = system: microglia (Iba 1); test: Brain immunohistochemistry of microglia activity (Iba 1) in hippocampus of 5×FAD; assay type: in vivo, mouse; details: 50 or 150 mg/kg intraperitoneally twice a week
Procedure: as §2, §3

[8] = system: BV2 cells, a microglia cell line; test: Inhibition of LPS-induced microglia activity (cell number, Iba1 fluorescence intensity); assay type: cell-based; details: for fluorescence intensity of Iba1 (FIG. 8) / number of cells (FIG. 8): LPS-treated microglia, 24 hours
Procedure: (§4) BV2 cells were cultured in high glucose DMEM medium containing 10% FBS and penicillin-streptomycin solution (5000 units/ml penicillin, 5 mg/ml streptomycin, Corning, USA) in a cell incubator at 37° C. in 5% CO2, which was used by subculturing three times a week therein.
(§5) Cultured BV2 cells were harvested using 0.1% trypsin to obtain a population, and cultured in 96-well plates pre-coated with Poly-D-Lysine (Sigma).
BV2 cells, a microglia cell line, were treated with LPS to induce microglia activation and inflammation, and eleutheroside B was treated at a concentration of 1 mM to 0.1 nM. The proliferation number and morphology changes after 24 hours of eleutheroside B treatment were quantified, and the activity level of microglial cells was verified by the fluorescence intensity of Iba1 (FIG. 6).
In order to confirm the regulation of the inflammatory response through the inhibition of microglia activity by eleutheroside B in a more precise way, high content imaging was analyzed by classifying into the number of proliferated cells and the fluorescence intensity of Iba1, and the results are shown in FIG. 8.

[9] = system: astrocytes; test: Cytokine secretion of LPS-treated astrocytes (multiplexing of conditioned media); assay type: cell-based, rats; details: conditioned media after 24 hours
Procedure: In order to more accurately study the above effect, the secretion of cytokines was observed simultaneously with the effect of inhibiting the activity of astrocytes. After 24 hours of treatment with LPS and drugs, conditioned media were collected and changes in pro-inflammatory cytokines (TNFα) and anti-inflammatory cytokines (IL-10) were examined.

[10] = system: 5×FAD; test: Working memory ability (Y-maze) in 5×FAD Alzheimer's disease animal model; assay type: in vivo, mouse; details: 50 or 150 mg/kg intraperitoneally twice a week from 4 months, measured at 6 months
Procedure: as §2
Working memory performance was performed by sequentially moving through three passages for 8 minutes in a Y-shaped maze to check whether the movement to the previous passage was remembered, and the degree of cognitive impairment was confirmed by calculating the ratio of sequentially crossing the three passages.

[11] = system: BV2 cells; test: Cytotoxicity of eleutheroside B to microglia (CCK-8/WST-8 survival rate); assay type: cell-based; details: 24 hours, mean±standard deviation
Procedure: as §4, §5
In order to check the cytotoxicity of eleutheroside B, BV2 cells (3×10^5 cells/well) were cultured in a 96-well culture plate for 24 hours, and then treated with various concentrations of eleutheroside B, followed by incubation for 24 hours. After 24 hours, the medium was removed and WST-8 [2-(2-methoxy-4-nitrophenyl)-3-(4-nitrophenyl)-5-(2,4-disulfophenyl)-2H-tetrazolium (Cell Counting Kit-8 (CCK-8), dojindo)] was added at a concentration of 100 uL/mL to induce a reduction reaction while incubating for 1 hour, and then absorbance (450 nm) was measured. Cell viability (%) (viability (%)=(treated group−negative control)/(positive control−negative control)×100) was calculated using the eleutheroside B treated group and the untreated control group.

[12] = 1-10 nM drug, compared to LPS activity

**Q.** For `COc1cc(/C=C/CO)cc(OC)c1O[C@@H]1O[C@H](CO)[C@@H](O)[C@H](O)[C@H]1O` [eleutheroside B], which “neurites (FIG. 10)” value [1] is on record?
**A.** showed an increase in neurites

**Q.** And the “DCX (differentiation marker)” value [2]?
**A.** slight increase

**Q.** And the “Tuj1 (differentiation marker)” value [2]?
**A.** slight increase

**Q.** And the “nestine (expansion phase marker)” value [2]?
**A.** significant increase

**Q.** What about the “neuN (integration phase marker)” value [2] of the same compound?
**A.** significant increase

**Q.** What about the “neuroD (differentiation phase marker)” value [2] of the same compound?
**A.** significant increase

**Q.** And the “sox2 (expansion phase marker)” value [2]?
**A.** significant increase

**Q.** What about the “activity of astrocytes / inflammation in CA1 of the hippocampus (FIG. 15)” value [3] of the same compound?
**A.** greatly reduced

**Q.** And the “concentration at which cytotoxicity was reported” value [4]?
**A.** 40 µM

**Q.** And the “anti-inflammatory cytokine IL-10 secretion” value [5]?
**A.** increased

**Q.** What about the “pro-inflammatory cytokine TNF-α secretion” value [5] of the same compound?
**A.** significant decrease in the pro-inflammatory cytokine TNF-α was not confirmed

**Q.** What about the “GFAP fluorescence intensity (FIG. 3)” value ([6]; 0.01 pg of eleutheroside B) of the same compound?
**A.** reduced to almost the same intensity as the control

**Q.** What about the “cell area (FIG. 4)” value [6, 12] of the same compound?
**A.** reduced

**Q.** And the “intensity of GFAP (FIG. 4)” value [6, 12]?
**A.** reduced

**Q.** And the “number of proliferated cells (FIG. 4)” value [6, 12]?
**A.** showed cell proliferation compared to LPS activity

**Q.** And the “fluorescence intensity of Iba 1 in hippocampus (FIG. 16)” value [7]?
**A.** lower than that of the Alzheimer's disease animal model

**Q.** And the “microglia / inflammation in CA1 of the hippocampus (FIG. 18)” value [7]?
**A.** greatly reduced almost as in the normal state

**Q.** What about the “inflammation / activity of microglial cells in all areas of the hippocampus (FIG. 17)” value ([7]; compared to the Alzheimer's disease animal model) of the same compound?
**A.** suppressed

**Q.** And the “Iba1 fluorescence intensity (FIG. 7)” value ([8]; LPS-activated microglia, 10 nM)?
**A.** reduced to almost the same intensity as that of the control

**Q.** What about the “fluorescence intensity of Iba1 (FIG. 8)” value [8] of the same compound?
**A.** decrease

**Q.** What about the “number of cells (FIG. 8)” value [8] of the same compound?
**A.** increased

**Q.** And the “anti-inflammatory cytokine IL-10 secretion” value [9]?
**A.** increased

**Q.** And the “pro-inflammatory cytokine TNF-α secretion” value [9]?
**A.** decreased

**Q.** And the “working memory ability (Y-maze)” value [10]?
**A.** almost the same remarkable cognitive ability improvement as the control group

**Q.** And the survival rate ([11]; 20 uM)?
**A.** 92±13.3%

**Q.** What about the survival rate ([11]; 40 uM) of the same compound?
**A.** 88±24.8%

**Q.** With `COc1cc2c(cc1OC)C(=O)C(CC1CCN(Cc3ccccc3)CC1)C2` (centres unmarked) [donepezil, reference compound] as the compound, how does the “anti-inflammatory cytokine IL-10 secretion” value [5] read?
**A.** does not affect cytokine secretion

**Q.** And the “pro-inflammatory cytokine TNF-α secretion” value [5]?
**A.** does not affect cytokine secretion

**Q.** And the “fluorescence intensity of Iba1 (FIG. 8)” value [8]?
**A.** relatively less microglial activity inhibition pattern than eleutheroside B

**Q.** What about the “number of cells (FIG. 8)” value [8] of the same compound?
**A.** inhibiting microglia apoptosis

**Q.** What about the “anti-inflammatory cytokine IL-10 secretion” value [9] of the same compound?
**A.** did not affect cytokine secretion

**Q.** And the “pro-inflammatory cytokine TNF-α secretion” value [9]?
**A.** did not affect cytokine secretion
